Measurements as given in patent US4386103A, “Dichloroamino acid derivatives useful as potent germicidal and fungicidal agents” (Merck & Co., Inc., priority 1981, dated 1983).

Tests used:
[1] = test system: Rhizopus oryzae; experiment: Contact fungicidal screen, Rhizopus oryzae; format: cell-based; conditions: 0.1M NaOAc pH 4.6
Protocol: (§1) The organisms used in the Contact Fungicidal Screen are a dermatophyte, trychophyton mentagrophytes, frequently associated with athlete's foot; a yeast, Candida albican, causative agent of thrush and vaginitis; a phycomycete, Rhizopus oryzae, commonly known as black bread mold; an ascomycete, Aspergillus fumagatis, found in chicken droppings and causing lung infections; and another dermatophyte, Microsporum canis, which causes ringworm. These organisms are maintained as stock cultures at 4° C. on agar slants of the following composition: dextrose 2%, Neopeptone (Difco) 1%, agar 2%. Fluid medium of the same nutrient composition (without agar) was used to test the viability of the organisms after exposure to the fungicide. This medium is also known as Sabouraud's medium.
[…]. The mycelial mat is removed from the surface of the agar using a sterile spatula. It is transferred to a heat sterilized glass tissue grinder and macerated with 25 ml of sterile physiological saline. The suspension is then filtered through sterile glass wool. The density of the sporangia spore suspension is determined by counting in a hemacytometer. The suspension is stored at 4° C. until it was used, at which time it was diluted with sterile physiological saline to a density of 5×10^6 spores per ml.
(§2) The compounds are weighed into heat sterilized 100 ml volumetric flasks and immediately before screening dissolved in 0.1 M NaOAc pH 4.6 buffer (test solutions).
(§3) The Aspergillus, Candida, Microsporum and Rhizopus species are screened in a slightly different manner. Basically, the procedure for the Contact Germicidal Efficiency Screen is utilized. After the test solutions are made up, 5 ml aliquots are pipetted into heat sterilized 25 ml glass stoppered erlenmeyer flasks. The screen is initiated when 0.5 ml of the 5×10^6 cell (spore) per ml suspension is added to the flask containing 5 ml of the test solution. At intervals of 0.5, 2.5, 5.0, 10.0 and 15.0 minutes, a 4 mm loopful of the inoculated test solution is subcultured into 7 mL of sterile fluid Sabouraud's medium and mixed on a vortex, the high dilution serving to stop the action of the compound. The subculture tubes are incubated at 25°-30° C. for ten days with daily observation for mycelial growth. The earliest subculture time at which no growth is present is considered the endpoint and is recorded as the sterilization time.
(§4) To insure the viability of the culture, a 0.5 ml aliquot of the 5×10^6 cells (spores) per ml suspension is transferred to 5 ml of the pH 4.6 buffer. A loopful of the inoculated buffer is then subcultured to 7 ml of fluid Sabouraud's medium and incubated at 25°-30° C. for ten days. To insure that the dilution of the test solution into the subculture medium does stop the action, a loopful of the test solution and a loopful of the inoculated buffer are transferred into the same subculture tube. This tube is also incubated at 25°-30° C. for ten days.

[2] = test system: Microsporum canis; experiment: Contact fungicidal screen, Microsporum canis; format: cell-based; conditions: 0.1M NaOAc pH 4.6
Protocol: (§5) The organisms used in the Contact Fungicidal Screen are a dermatophyte, trychophyton mentagrophytes, frequently associated with athlete's foot; a yeast, Candida albican, causative agent of thrush and vaginitis; a phycomycete, Rhizopus oryzae, commonly known as black bread mold; an ascomycete, Aspergillus fumagatis, found in chicken droppings and causing lung infections; and another dermatophyte, Microsporum canis, which causes ringworm. These organisms are maintained as stock cultures at 4° C. on agar […] of the following composition: dextrose 2%, Neopeptone (Difco) 1%, agar 2%. Fluid medium of the same nutrient composition (without agar) was used to test the viability of the organisms after exposure to the fungicide. This medium is also known as Sabouraud's medium. Sabouraud's agar plate cultures of Aspergillus fumigatus, Microsporum canis, and a different culture of Trychophyton mentagrophytes are prepared by planting an inoculum at the center of an agar plate and incubating at 25°-30° C. for seven to ten days. The mycelial mats are removed from the surface of the agar and prepared in the same manner as the Rhizopus culture. The compounds are weighed into heat sterilized 100 ml volumetric flasks and immediately before screening dissolved in 0.1 M NaOAc pH 4.6 buffer (test solutions). The Aspergillus, Candida, Microsporum and Rhizopus species are screened in a slightly different manner. Basically, the procedure for the Contact Germicidal Efficiency Screen is utilized. After the test solutions are made up, 5 ml aliquots are pipetted into heat sterilized 25 ml glass stoppered erlenmeyer flasks. The screen is initiated when 0.5 ml of the 5×10^6 cell (spore) per ml suspension is added to the flask containing 5 ml of the test solution. […] The subculture tubes are incubated at 25°-30° C. for ten days with daily observation for mycelial growth. The earliest subculture time at which no growth is present is considered the endpoint and is recorded as the sterilization time. To insure the viability of the culture, a 0.5 ml aliquot of the 5×10^6 cells (spores) per ml suspension is transferred to 5 ml of the pH 4.6 buffer. A loopful of the inoculated buffer is then subcultured to 7 ml of fluid Sabouraud's medium and incubated at 25°-30° C. for ten days. To insure that the dilution of the test solution into the subculture medium does stop the action, a loopful of the test solution and a loopful of the inoculated buffer are transferred into the same subculture tube. This tube is also incubated at 25°-30° C. for ten days.

[3] = test system: Aspergillus fumigatus; experiment: Contact fungicidal screen, Aspergillus fumigatus; format: cell-based; conditions: 0.1M NaOAc pH 4.6
Protocol: as §5

[4] = test system: Candida albican; experiment: Contact fungicidal screen, Candida albican; format: cell-based; conditions: 0.1M NaOAc pH 4.6
Protocol: as §1
The Candida albican is grown in Sabouraud's liquid medium at 25°-30° C. for three days. At the end of the incubation period the cell suspension is centrifuged at 200 G and washed with sterile physiological saline (0.85% NaCl). The density of the cell suspension is determined by counting in a hemacytometer. The suspension is stored a 4° C. until it is used, at which time it is diluted with sterile physiological saline to a density of 5×10^6 cells per ml.
as §2, §3, §4

[5] = test system: Gram-positive and Gram-negative organisms; conditions: cited from earlier work
[6] = test system: pseudomonas organisms; conditions: cited from earlier work
[7] = animal tests; cited from earlier work
[8] = test system: Gram-negative organisms; conditions: cited from earlier work
[9] = Stability of chloroamino acids in pH 4 acetate buffer at 34° C.; format: physicochemical; conditions: for half-life: read-out: Stability (t1/2) (converted)
Description: The effect of this distance on stability in aqueous medium is illustrated in the following table.

CC(C)(CCCCC(=O)O)N(Cl)Cl [(VI), 6-Dichloroamino-6-methyl-heptanoic acid]
Sterilization Time ([1]; 10 PPM): 15 min
Sterilization Time ([1]; 100 PPM): 15 min
Sterilization Time ([1]; 1000 PPM): 15 min
Sterilization Time ([2]; 10 PPM): 10.0 min
Sterilization Time ([2]; 100 PPM): 2.5 min
Sterilization Time ([2]; 1000 PPM): 0.5 min
Sterilization Time ([3]; 10 PPM): 15 min
Sterilization Time ([3]; 100 PPM): 15 min
Sterilization Time ([3]; 1000 PPM): 5.0 min
Sterilization Time ([4]; 10 PPM): 15 min
Sterilization Time ([4]; 100 PPM): 2.5 min
Sterilization Time ([4]; 1000 PPM): 0.5 min

[H]/N=C(\N/C(=N/[H])NCCCCCCNC(=N)NC(=N)Nc1ccc(Cl)cc1)Nc1ccc(Cl)cc1 [Chlorhexidine]
activity against Gram-positive and Gram-negative organisms [5]: generally effective against Gram-positive and Gram-negative oganisms
activity against pseudomonas organisms [6]: not effective against pseudomonas organisms

Oc1c(Cl)cc(Cl)c(Cl)c1Cc1c(O)c(Cl)cc(Cl)c1Cl [Hexachlorophene]
neurotoxicity [7]: caused neurotoxicity
activity against Gram-negative organisms [8]: ineffective against Gram-negative organisms

CC(C)(CCC(=O)O)N(Cl)Cl [Z = CH2 CH2]
half-life [9]: 57 days

CC(C)(CC(=O)O)N(Cl)Cl [Z = CH2]
half-life [9]: 1.21 days

CC(C)(C(=O)O)N(Cl)Cl [Z = nothing]
Stability (in words) [9]: violent decomposition

CC(C)(COC(=O)CCC(=O)O)N(Cl)Cl [drawing 17]
half-life [9]: 300 days
